# Laboratory results reported in patent publication US20160318933A1, “FUSED PYRAZOLE DERIVATIVE” (SUMITOMO DAINIPPON PHARMA CO., LTD., priority 2013, published 2016).
# Biological target: T1, human brain-derived dopamine D4 receptor (Homo sapiens, UniProt P21917)
# T1 construct: expressed in transfected cells; host or cells: CHO (CHO-K1) or HEK293 cells
# T1 sequence (P21917 1-419): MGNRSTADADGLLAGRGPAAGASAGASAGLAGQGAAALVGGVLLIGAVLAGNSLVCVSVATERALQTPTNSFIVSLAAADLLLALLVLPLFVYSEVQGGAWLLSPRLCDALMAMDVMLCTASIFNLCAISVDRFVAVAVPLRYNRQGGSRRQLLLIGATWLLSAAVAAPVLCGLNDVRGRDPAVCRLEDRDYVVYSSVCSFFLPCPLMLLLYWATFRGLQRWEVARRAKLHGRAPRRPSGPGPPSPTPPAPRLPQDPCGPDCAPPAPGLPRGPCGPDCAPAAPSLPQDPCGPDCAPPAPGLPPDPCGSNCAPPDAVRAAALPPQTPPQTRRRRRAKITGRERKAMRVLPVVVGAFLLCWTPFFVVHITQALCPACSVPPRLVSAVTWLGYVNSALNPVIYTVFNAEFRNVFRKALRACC
# Test: Agonistic activity in G protein dependent pathway of dopamine D4 receptor (aequorin intracellular calcium luminescence, FDSS)
# Assay type: cell-based
# Conditions: for EC50: concentration required to achieve a 50% response of Emax, CHO-K1 or HEK293 cells transfected with D4 receptor; for Emax: read-out: Maximal activity on D4 receptor (%)
# Source text: The G protein dependent pathway is a pathway for transmitting signals in cells via a second messenger by stimulating a G protein through the binding of guanosine triphosphate (GTP) to the G protein. When GPCRs are activated by the binding of a ligand, a G protein binds to the GPCRs, and thereby GTP binds to a Gα subunit that is one of G protein subunits and a Gγβ subunit is dissociated. The activated Gα subunit regulates intracellular cAMP levels by the activation or inhibition of an adenylate cyclase, and regulates intracellular calcium levels by the activation of phospholipase C to transmit signals in cells.
# The agonistic activities of the present compounds in the G protein dependent pathway were evaluated on the basis of intracellular calcium levels as follows. CHO-K1 or HEK293 cell lines transfected with D4 receptor genes were seeded in a 384-well plate, and incubated in a CO2 incubator at 37° C. for 24 hours, and then a solution of the present compound in DMSO was added into cells preloaded with coelenterazine to measure the change in luminescent signals with a FDSS (Hamamatsu Photonics K.K.). […] The agonistic activity of the present compound was calculated according to the measured luminescent signals, as the maximal activity (Emax) of the present compound. EC50 value was calculated as the concentration of the present compound required to achieve a 50% response of Emax.
Structure (SMILES),EC50,Emax
Cc1cccnc1-c1cc2n(n1)CCN(Cc1cccc(CF)n1)C2 [Example 137],10 nM,82%
Cc1cccnc1-c1cc2n(n1)CCN(Cc1ccc(F)cc1)C2 [Example 58],22 nM,81%
Cc1ccnc(CN2CCn3nc(-c4ccccn4)c(C)c3C2)c1 [Example 93],23 nM,56%
Cc1ncc(CN2CCn3nc(-c4ncccc4F)cc3C2)cn1 [Example 171],252 nM,48%
Cc1ccc(CN2CCn3nc(-c4ccccn4)c(C)c3C2)cc1 [Example 76],44 nM,59%
Nc1nc(C(F)(F)F)ccc1CN1CCn2nc(-c3ccccn3)cc2C1 [Example 21],47 nM,59%
Cc1c(-c2ccccn2)nn2c1CN(Cc1ccc(C(F)(F)F)cc1)CC2 [Example 74],73 nM,65%
Fc1cccnc1-c1cc2n(n1)CCN(Cc1ccccc1)C2 [Example 79],3.4 nM,83%
Cc1cccnc1-c1cc2n(n1)CCN(Cc1cc3c(cn1)CCC3)C2 [Example 181],43 nM,43%
Cc1cccnc1-c1cc2n(n1)CCN(Cc1ccc3c(c1)N(C)C(=O)CS3)C2 [Example 77],58 nM,62%
Cc1cccnc1-c1cc2n(n1)CCN(Cc1ccc(CF)c(C)n1)C2 [Example 180],38 nM,63%
"Cc1cccnc1-c1cc2n(n1)CCN(Cc1ccc(C(F)(F)F)nc1)C2 [Example 143, 2-(3-Methylpyridin-2-yl)-5-{[6-(trifluoromethyl)pyridin-3-yl]methyl}-4,5,6,7-tetrahydropyrazolo[1,5-a]pyrazine]",80 nM,48%
Cc1cccnc1-c1nn2c(c1C)CN(Cc1ccc(C(F)(F)F)nc1)CC2 [Example 117],241 nM,51%
Cc1ccc(CN2CCn3nc(-c4ncccc4F)cc3C2)nc1 [Example 109],36 nM,68%
Cc1cccnc1-c1cc2n(n1)CCN(Cc1ncn3ccccc13)C2 [Example 96],37 nM,57%
Cc1cnc(CN2CCn3nc(-c4ncccc4F)cc3C2)cn1 [Example 159],92 nM,64%
Cc1cccnc1-c1cc2n(n1)CCN(Cc1c3ccccc3nn1C)C2 [Example 149],107 nM,53%
Cc1ccc(CN2CCn3nc(-c4ccccn4)c(C)c3C2)nc1 [Example 110],18 nM,99%
COc1ccccc1-c1cc2n(n1)CCN(Cc1ccc(F)c(C#N)c1)C2 [Example 18],60 nM,83%
Cc1cccnc1-c1cc2n(n1)CCN(Cc1ncc(Br)cc1F)C2 [Example 183],108 nM,49%
Fc1cccnc1-c1cc2n(n1)CCN(Cc1c[nH]c3ccccc13)C2 [Example 165],22 nM,65%
"c1ccc(CN2CCn3nc(-c4ccccn4)cc3C2)cc1 [Example 1, 5-Benzyl-2-(pyridin-2-yl)-4,5,6,7-tetrahydropyrazolo[1,5-a]pyrazine]",20 nM,71%
Fc1cccnc1-c1cc2n(n1)CCN(Cc1cnc(C(F)(F)F)nc1)C2 [Example 198],45 nM,33%
Cc1ccc(CN2CCn3nc(-c4ncccc4C)cc3C2)nc1C [Example 131],22 nM,66%
Cc1cccnc1-c1cc2n(n1)CCN(Cc1ccc(Cl)c(C)n1)C2 [Example 178],32 nM,50%
"FC(F)(F)c1cccnc1-c1cc2n(n1)CCN(Cc1ccccc1)C2 [Example 140, 5-Benzyl-2-[3-(trifluoromethyl)pyridin-2-yl]-4,5,6,7-tetrahydropyrazolo[1,5-a]pyrazine]",86 nM,85%

Structure (SMILES),EC50,Emax
Cc1c(-c2ccccn2)nn2c1CN(Cc1ccc(CF)nc1)CC2 [Example 134],42 nM,62%
Cc1ncc(CN2CCn3nc(-c4ncccc4F)cc3C2)c(N)n1 [Example 46],45 nM,59%
c1ccc(-c2cc3n(n2)CCN(Cc2ccc4occc4c2)C3)nc1 [Example 39],35 nM,69%
Cc1cccnc1-c1cc2n(n1)CCN(Cc1n[nH]c3ccccc13)C2 [Example 35],4.3 nM,87%
Cc1cccnc1-c1cc2n(n1)CCN(Cc1n[nH]c3cc(F)ccc13)C2 [Example 100],20 nM,79%
COc1ccccc1-c1cc2n(n1)CCN(Cc1cn3ccccc3n1)C2 [Example 17],25 nM,52%
Cc1cccnc1-c1cc2n(n1)CCN(Cc1ccc(C(F)(F)F)nc1N)C2 [Example 105],69 nM,79%
Cc1c(-c2ccccn2)nn2c1CN(Cc1ccc(C(F)(F)F)nc1)CC2 [Example 95],51 nM,56%
Cc1cnc(N)c(CN2CCn3nc(-c4ncccc4C)cc3C2)c1 [Example 103],127 nM,53%
Cc1cccnc1-c1cc2n(n1)CCN(Cc1ccc(Cl)cc1)C2 [Example 56],12 nM,78%
Cc1c(-c2ccccn2)nn2c1CN(Cc1ccc(C#N)cc1)CC2 [Example 75],37 nM,61%
Cc1cccnc1-c1cc2n(n1)CCN(Cc1ccc(CO)cn1)C2 [Example 157],127 nM,50%
Cc1cccnc1-c1cc2n(n1)CCN(Cc1n[nH]c3c(F)cccc13)C2 [Example 40],11 nM,70%
c1ccc(-c2cc3n(n2)CCN(Cc2ccc4[nH]ncc4c2)C3)nc1 [Example 13],116 nM,65%
Cc1ccc(CN2CCn3nc(-c4ncccc4C)cc3C2)nc1 [Example 107],13 nM,61%
Cc1cccnc1-c1cc2n(n1)CCN(Cc1n[nH]c3ccc(F)cc13)C2 [Example 44],26 nM,98%
Cc1ncc(CN2CCn3nc(-c4ncccc4F)cc3C2)c(C)n1 [Example 191],43 nM,76%
Cc1cccc(CN2CCn3nc(-c4ncccc4F)cc3C2)n1 [Example 161],26 nM,74%
Cn1nc2ccccc2c1CN1CCn2nc(-c3ncccc3F)cc2C1 [Example 168],82 nM,65%
N#Cc1ccc(CN2CCn3nc(-c4ncccc4F)cc3C2)cc1 [Example 69],59 nM,50%
Cc1cccnc1-c1nn2c(c1C)CN(Cc1ccccc1)CC2 [Example 73],30 nM,58%
Cc1ccc(CN2CCn3nc(-c4ncccc4F)c(C)c3C2)cn1 [Example 121],46 nM,84%
Cc1cccnc1-c1cc2n(n1)CCN(Cc1cc3c(cn1)OCC3)C2 [Example 185],82 nM,51%
Cc1cccnc1-c1cc2n(n1)CCN(Cc1ccc(C(F)(F)F)c(F)c1)C2 [Example 48],96 nM,50%
Cc1cc(CN2CCn3nc(-c4ncccc4C)cc3C2)cnc1Cl [Example 187],32 nM,66%
Cc1cccnc1-c1cc2n(n1)CCN(Cc1n[nH]c3cccc(C)c13)C2 [Example 45],157 nM,54%
